Source: patent publication US9889146B2, “Benzoxaborole compounds and uses thereof” (priority 2012, dated 2018)
Converted amounts (≈) assume the structure as drawn. Where two headings read alike, the source gives them in different places.

How the values were obtained:
Type in all cases: cell-based
[1] = system: Citrobacter freundii (AmpC); assay: microbe, parasite or virus in culture; conditions: Citrobacter freundii
[2] = system: Proteus vulgaris (WT); assay: microbe, parasite or virus in culture; conditions: Proteus vulgaris (WT), 41 isolates; read-out: MIC90
[3] = system: Enterobacter cloacae (AmpC); assay: microbe, parasite or virus in culture; conditions: Enterobacter cloacae
[4] = system: Klebsiella spp. (ESBL); assay: microbe, parasite or virus in culture; conditions: Klebsiella
[5] = system: Providencia spp.(all); assay: microbe, parasite or virus in culture; conditions: Providencia spp.(all), 68 isolates; read-out: MIC90
[6] = system: Enterobacter cloacae (WT); assay: microbe, parasite or virus in culture; conditions: 202 isolates, read-out: MIC90
[7] = system: Enterobacter aerogenes (WT); assay: microbe, parasite or virus in culture; conditions: Klebsiella aerogenes; Enterobacter aerogenes (WT), 199 isolates; read-out: MIC90
[8] = system: Proteus mirabilis (WT); assay: microbe, parasite or virus in culture; conditions: Proteus mirabilis (WT), 235 isolates; read-out: MIC90
[9] = system: Morganella morganii (AmpC); assay: microbe, parasite or virus in culture; conditions: Morganella morganii
[10] = system: Enterobacteriaceae; assay: organism not typed; conditions: Enterobacteriaceae, 2029 isolates; read-out: MIC90
[11] = system: Klebsiella spp. (WT); assay: microbe, parasite or virus in culture; conditions: Klebsiella spp. (WT), 159 isolates; read-out: MIC90
[12] = system: Enterobacter aerogenes (AmpC); assay: microbe, parasite or virus in culture; conditions: Klebsiella aerogenes
[13] = system: E. coli (ESBL); assay: microbe, parasite or virus in culture; conditions: Escherichia coli
[14] = system: E. coli (WT); assay: microbe, parasite or virus in culture; conditions: Escherichia coli; E. coli (WT), 214 isolates; read-out: MIC90
[15] = system: S. marcescens (AmpC); assay: microbe, parasite or virus in culture; conditions: Serratia marcescens
[16] = system: Klebsiella spp. (KPC); assay: microbe, parasite or virus in culture; conditions: Klebsiella
[17] = system: P. aeruginosa; assay: In vitro activity against P. aeruginosa clinical isolates; conditions: P. aeruginosa, 2,008 clinical isolates; GSK2251052 based on potential susceptible breakpoint of ≦4 μg/mL
Protocol: GSK2251052 was tested for activity against P. aeruginosa, and its activity was compared to other antibiotics of known activity. The results are shown below in Tables 2a and 2b. Of 2,008 clinical isolates tested (from 2009-2010 subjects, of which 40% were from North America) greater than 90% were susceptible to GSK2251052 based on a potential susceptible breakpoint of ≦4 μg/mL.

[18] = system: E. coli ATCC 25922, K. pneumoniae ATCC 13883 and P. aeruginosa ATCC 27853; assay: MIC, three strains and their mutants summarised; conditions: MIC in E. coli, P. aeruginosa and K. pneumoniae mutants versus wild-type
Protocol: (§1) Spontaneous Resistance Frequency was determined in vitro for GSK2251052 and the resistance mutants in E. coli ATCC 25922, K. pneumoniae ATCC 13883, and P. aeruginosa ATCC 27853 strains were characterized. GSK2251052 was prepared as described in U.S. Pat. No. 7,816,344 (the entire contents of which are hereby incorporated by reference herein). LB broth, Mueller Hinton II broth (adjusted), and Difco noble agar were obtained from Becton Dickinson (Cockeysville, Md., USA). M9 minimal broth containing 1×M9 salt, 0.5 μg/ML thiamine, 1 mM MgSO4, 0.1 mM CaCl2, 2% glucose, was obtained from Teknova (Hollister, Calif., USA). Antibacterial agents ciprofloxacin, ceftazidime, chloramphenicol, gentamycin, kanamycin, polymixin B, tobramycin and trimethoprim, and amino acids were obtained from Sigma Chemicals (St. Louis, Mo., USA). Strains were obtained from ATCC (Manassas, Va., USA).
(§2) Susceptibility tests were performed following the recommendations for aerobic bacteria (M7-A7) from the Clinical and Laboratories Standards Institute (CLSI).
(§3) Laboratory generated mutants resistant to GSK2251052 contain mutations in the editing domain of LeuRS. Six to ten GSK2251052 resistant colonies of E. coli ATCC 25922, K. pneumoniae ATCC 13883 and P. aeruginosa ATCC 27853 were selected for further analysis and their MICs to GSK2251052 were determined (Table 4-7).
GSK2251052 resistant mutants were not cross-resistant to commercial antibiotics.

[19] = system: K. pneumoniae ATCC 13883 wild type and mutants; assay: MIC, wild type and GSK2251052 resistant mutants; conditions: Klebsiella pneumoniae
Protocol: as §1, §2, §3

[20] = system: E. coli ATCC 25922 wild type and mutants; assay: MIC, wild type and GSK2251052 resistant mutants; conditions: Escherichia coli
Protocol: as §1, §2, §3

[21] = system: P. aeruginosa ATCC 27853 wild type and mutants; assay: MIC, wild type and GSK2251052 resistant mutants; conditions: Pseudomonas aeruginosa
Protocol: as §1, §2, §3

[22] = system: E. coli ATCC 25922; assay: Spontaneous frequency of resistance; conditions: 24 h
Protocol: as §1
(§4) Selection of resistance to GSK2251052 was attempted by spreading various amounts of bacteria onto MHBII noble agar plates containing 4×MIC (minimum inhibitory concentration) or 10×MIC of GSK2251052. Colonies were counted after 24 hours and 48 hours incubation at 37° C. The resistance of these colonies was confirmed by their ability to grow on plates containing GSK2251052 at either 4× or 10×MIC. Frequency of resistance was determined by dividing the number of resistant mutants by the total number of cells plated as determined by plating dilutions of the overnight culture on LB plates.

[23] = system: P. aeruginosa ATCC 27853; assay: Spontaneous frequency of resistance; conditions: 24 h
Protocol: as §1, §4

[24] = system: K. pneumoniae ATCC 13883; assay: Spontaneous frequency of resistance; conditions: 24 h
Protocol: as §1, §4

[25] = ATCC13883, K wt., read-out: MICs
[26] = ATCC13883, read-out: MICs, mutant K 104
[27] = ATCC13883, read-out: MICs, mutant K 105
[28] = ATCC13883, read-out: MICs, mutant K 107
[29] = ATCC13883, read-out: MICs, mutant K 108
[30] = ATCC13883, read-out: MICs, mutant K 110
[31] = ATCC25922, E wt, read-out: MICs
[32] = ATCC25922, read-out: MICs, mutant E 101
[33] = ATCC25922, read-out: MICs, mutant E 102
[34] = ATCC25922, read-out: MICs, mutant E 107
[35] = ATCC27853, P wt., read-out: MICs
[36] = ATCC27853, read-out: MICs, mutant P 101
[37] = ATCC27853, read-out: MICs, mutant P106
[38] = ATCC27853, read-out: MICs, mutant P108

CC1(C)S[C@@H]2[C@H](NC(=O)[C@H](N)c3ccccc3)C(=O)N2[C@H]1C(=O)O [Ampicillin]
MIC90 [1]: > 64 µg/mL | MIC90 [2]: > 64 µg/mL | MIC90 [3]: > 64 µg/mL | MIC90 [4]: > 64 µg/mL | MIC90 [5]: > 64 µg/mL | MIC90 [6]: > 64 µg/mL | MIC90 [7]: > 64 µg/mL | MIC90 [8]: > 64 µg/mL | MIC90 [9]: > 64 µg/mL | MIC90 [10]: > 64 µg/mL | MIC90 [11]: > 64 µg/mL | MIC90 [12]: > 64 µg/mL | MIC90 [13]: > 64 µg/mL | MIC90 [14]: > 64 µg/mL | MIC90 [15]: > 64 µg/mL | MIC90 [16]: > 64 µg/mL

CO/N=C(\C(=O)N[C@@H]1C(=O)N2C(C(=O)[O-])=C(C[N+]3(C)CCCC3)CS[C@H]12)c1csc(N)n1 [Cefepime]
MIC90 [1]: 16 µg/mL (≈ 33.3 µM) | MIC90 [2]: ≤ 1 µg/mL | MIC90 [4]: > 32 µg/mL | MIC90 [5]: > 32 µg/mL | % susceptible [17]: 75.3% | MIC90 [7]: ≤ 1 µg/mL | MIC90 [8]: ≤ 1 µg/mL | MIC90 [9]: > 32 µg/mL | MIC90 [10]: 4 µg/mL (≈ 8.32 µM) | MIC90 [11]: ≤ 1 µg/mL | MIC90 [12]: 8 µg/mL (≈ 16.6 µM) | MIC90 [13]: > 32 µg/mL | MIC90 [14]: ≤ 1 µg/mL | MIC90 [15]: 8 µg/mL (≈ 16.6 µM) | MIC90 [16]: > 32 µg/mL

O=C(N[C@H](CO)[C@H](O)c1ccc([N+](=O)[O-])cc1)C(Cl)Cl [Chloramphenicol]
cross-resistance of GSK2251052 resistant mutants [18]: did not have any significant difference in MIC values than wild-type | MIC [19, 25]: 4 µg/mL (≈ 12.4 µM) | MIC [19, 26]: 8 µg/mL (≈ 24.8 µM) | MIC [19, 27]: 8 µg/mL (≈ 24.8 µM) | MIC [19, 28]: 8 µg/mL (≈ 24.8 µM) | MIC [19, 29]: 8 µg/mL (≈ 24.8 µM) | MIC [19, 30]: 8 µg/mL (≈ 24.8 µM) | MIC [20, 31]: 8 µg/mL (≈ 24.8 µM) | MIC [20, 32]: 8 µg/mL (≈ 24.8 µM) | MIC [20, 33]: 8 µg/mL (≈ 24.8 µM) | MIC [20, 34]: 8 µg/mL (≈ 24.8 µM) | MIC [21, 35]: > 64 µg/mL | MIC [21, 36]: > 64 µg/mL | MIC [21, 37]: > 64 µg/mL | MIC [21, 38]: > 64 µg/mL

O=C(O)c1cn(C2CC2)c2cc(N3CCNCC3)c(F)cc2c1=O [Ciprofloxacin]
cross-resistance of GSK2251052 resistant mutants [18]: did not have any significant difference in MIC values than wild-type | MIC [19, 25]: 0.125 µg/mL (≈ 0.377 µM) | MIC [19, 26]: 0.03 µg/mL (≈ 0.0905 µM) | MIC [19, 27]: 0.06 µg/mL (≈ 0.181 µM) | MIC [19, 28]: 0.06 µg/mL (≈ 0.181 µM) | MIC [19, 29]: 0.03 µg/mL (≈ 0.0905 µM) | MIC [19, 30]: 0.03 µg/mL (≈ 0.0905 µM) | MIC [20, 31]: 0.008 µg/mL (≈ 0.0241 µM) | MIC [20, 32]: 0.008 µg/mL (≈ 0.0241 µM) | MIC [20, 33]: 0.008 µg/mL (≈ 0.0241 µM) | MIC [20, 34]: 0.015 µg/mL (≈ 0.0453 µM) | MIC [21, 35]: 0.5 µg/mL (≈ 1.51 µM) | MIC [21, 36]: 1 µg/mL (≈ 3.02 µM) | MIC [21, 37]: 1 µg/mL (≈ 3.02 µM) | MIC [21, 38]: 0.5 µg/mL (≈ 1.51 µM) | Frequency of Resistance ([22]; 4 X MIC): 2 × 10^−8 | Frequency of Resistance ([22]; 10 X MIC): <4 × 10^−9 | Frequency of Resistance ([23]; 4 X MIC): 1 × 10^−8 | Frequency of Resistance ([23]; 10 X MIC): <1 × 10^−9 | Frequency of Resistance ([24]; 4 X MIC): 5 × 10^−7 | Frequency of Resistance ([24]; 10 X MIC): <5 × 10^−9
